{"source": "paper PMC7069944", "about": "“Amino acid levels determine metabolism and CYP450 function of hepatocytes and hepatoma cell lines” (Nature Communications, 2020)", "details_in_all_cases": "repeat exposure", "key": {"HepG2": {"test_system": "HepG2", "assay": "Repeated-exposure DILI training compounds, resazurin conversion, HepG2", "method_in_brief": "(§1)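 PSC-derived cells differentiated in 384-well format, plus HepG2 seeded at 40,000 cells/well, received drugs after 8 h of attachment; untreated wells served as negative controls. Viability was measured by resazurin conversion and related to therapeutic Cmax values.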"}, "HLC": {"test_system": "HLC", "assay": "Repeated-exposure DILI training compounds, resazurin conversion, HLC", "method_in_brief": "as §1"}, "HC3X": {"test_system": "HC3X", "assay": "Repeated-exposure DILI training compounds, resazurin conversion, HC3X", "method_in_brief": "as §1"}, "HC6X": {"test_system": "HC6X", "assay": "Repeated-exposure DILI training compounds, resazurin conversion, HC6X", "method_in_brief": "as §1"}}, "note": "Values joined by “and” are separate entries in the source; they are usually repeats but may differ in a detail not shown here. Equal entries are not always repeated.", "data": [{"smiles": "CN(C)C(=N)N=C(N)N", "note": "[metformin]", "values": [{"measurement": "% resazurin conversion", "setting": "HepG2; HepG2 AAGLY D30, 3 uM", "result": "106.5% and 83.4% and 85.8% and 89.2% and 108.4% and 105.4%"}, {"measurement": "% resazurin conversion", "setting": "HepG2; HepG2 AAGLY D30, 5 uM", "result": "88% and 69.4% and 79.7% and 91.5% and 76.9% and 122.8%"}, {"measurement": "% resazurin conversion", "setting": "HepG2; HepG2 AAGLY D30, 10 uM", "result": "92.9% and 78.4% and 78.2% and 87.4% and 93.3%"}, {"measurement": "% resazurin conversion", "setting": "HepG2; HepG2 AAGLY D30, 30 uM", "result": "87% and 68% and 60.1% and 90.4% and 65.8% and 86.5%"}, {"measurement": "% resazurin conversion", "setting": "HepG2; HepG2 AAGLY D30, 50 uM", "result": "88% and 78.4% and 75.6% and 85.4% and 68.8% and 94.1%"}, {"measurement": "% resazurin conversion", "setting": "HepG2; HepG2 AAGLY D30, 100 uM", "result": "77.9% and 69.4% and 77.6% and 78.3% and 71.2% and 86.1%"}, {"measurement": "% resazurin conversion", "setting": "HepG2; HepG2 AAGLY D30, 300 uM", "result": "86.3% and 86.2% and 78.9% and 85.6% and 74.5% and 86.7%"}, {"measurement": "% resazurin conversion", "setting": "HepG2; HepG2 AAGLY D30, 600 uM", "result": "84.6% and 71.8% and 75.9% and 95.3% and 64.4% and 77.4%"}, {"measurement": "% resazurin conversion", "setting": "HepG2; HepG2 AAGLY D30, 1200 uM", "result": "73.9% and 67.2% and 67.9% and 98.6% and 62.2% and 57.6%"}, {"measurement": "% resazurin conversion", "setting": "HepG2; HepG2 CTL D7, 3 uM", "result": 101.7, "unit": "%"}, {"measurement": "% resazurin conversion", "setting": "HepG2; HepG2 CTL D7, 5 uM", "result": "111.2% and 104.6% and 117.2% and 107.8% and 111% and 112.7%"}, {"measurement": "% resazurin conversion", "setting": "HepG2; HepG2 CTL D7, 10 uM", "result": "105.8% and 104.6% and 92.9% and 101.2% and 94.9% and 100.3%"}, {"measurement": "% resazurin conversion", "setting": "HepG2; HepG2 CTL D7, 30 uM", "result": "99.1% and 100.4% and 105.9% and 109.1% and 102.2%"}, {"measurement": "% resazurin conversion", "setting": "HepG2; HepG2 CTL D7, 50 uM", "result": "97.6% and 97.7% and 100.3% and 99.5% and 102% and 100.6%"}, {"measurement": "% resazurin conversion", "setting": "HepG2; HepG2 CTL D7, 100 uM", "result": "101.5% and 103.6% and 107.4% and 101.8% and 103.4% and 105%"}, {"measurement": "% resazurin conversion", "setting": "HepG2; HepG2 CTL D7, 300 uM", "result": "89.7% and 83.5% and 88.5% and 95.8% and 93.1% and 96.3%"}, {"measurement": "% resazurin conversion", "setting": "HepG2; HepG2 CTL D7, 600 uM", "result": "92.6% and 88.6% and 89.1% and 90.3% and 94.1% and 93.8%"}, {"measurement": "% resazurin conversion", "setting": "HepG2; HepG2 CTL D7, 1200 uM", "result": "80.9% and 84% and 84.2% and 85.5% and 84.4%"}, {"measurement": "% resazurin conversion", "setting": "HLC; HLC AAGLY D40, 3 uM", "result": "117.8% and 180.2% and 192.1% and 138.7% and 131.9% and 161.2%"}, {"measurement": "% resazurin conversion", "setting": "HLC; HLC AAGLY D40, 10 uM", "result": "85.1% and 137.4% and 97.3% and 121% and 128.3% and 141.7%"}, {"measurement": "% resazurin conversion", "setting": "HLC; HLC LDM D40, 3 uM", "result": "115.5% and 119.8% and 128.3% and 105.8% and 132.2% and 110.8%"}, {"measurement": "% resazurin conversion", "setting": "HLC; HLC LDM D40, 10 uM", "result": "112.2% and 115.2% and 101.7% and 107.6% and 122.7% and 95.8%"}, {"measurement": "% resazurin conversion", "setting": "HLC; HLC LDM D40, 30 uM", "result": "101.1% and 127.7% and 123.7% and 100.6% and 111.7% and 97.3%"}, {"measurement": "% resazurin conversion", "setting": "HLC; HLC LDM D40, 50 uM", "result": "69.5% and 123.5% and 118.7% and 111% and 112.5% and 97.1%"}, {"measurement": "% resazurin conversion", "setting": "HLC; HLC LDM D40, 100 uM", "result": "130.3% and 131.7% and 140% and 109.2% and 99.5% and 135.5%"}, {"measurement": "% resazurin conversion", "setting": "HLC; HLC LDM D40, 300 uM", "result": "131.8% and 130.1% and 119.9% and 132.8% and 107.9% and 132.1%"}, {"measurement": "% resazurin conversion", "setting": "HLC; HLC LDM D40, 600 uM", "result": "142.1% and 137.1% and 121.7% and 130.5% and 134.1% and 94.8%"}, {"measurement": "% resazurin conversion", "setting": "HLC; HLC LDM D40, 1200 uM", "result": "117% and 113% and 129.7% and 145.7% and 140.5% and 102.5%"}, {"measurement": "% resazurin conversion", "setting": "HC3X; HC3X AAGLY D40, 3 uM", "result": "107.4% and 112.9% and 102.8% and 86.5% and 93.5% and 86.7%"}, {"measurement": "% resazurin conversion", "setting": "HC3X; HC3X AAGLY D40, 5 uM", "result": "117.3% and 115.7% and 110.3% and 104.4% and 106.7% and 61.4%"}, {"measurement": "% resazurin conversion", "setting": "HC3X; HC3X AAGLY D40, 10 uM", "result": "108.5% and 87.5% and 112.1% and 74.4% and 97.6% and 102.3%"}, {"measurement": "% resazurin conversion", "setting": "HC3X; HC3X AAGLY D40, 30 uM", "result": "105.4% and 101.2% and 96.4% and 131.5% and 86.6% and 96.2%"}, {"measurement": "% resazurin conversion", "setting": "HC3X; HC3X AAGLY D40, 50 uM", "result": "110.2% and 114.4% and 75% and 103.1% and 92.6% and 99.9%"}, {"measurement": "% resazurin conversion", "setting": "HC3X; HC3X AAGLY D40, 300 uM", "result": "121.9% and 148% and 124.4% and 102.2% and 122.5% and 91.9%"}, {"measurement": "% resazurin conversion", "setting": "HC3X; HC3X AAGLY D40, 600 uM", "result": "150.2% and 156.7% and 145.2% and 144.4% and 152.7% and 115%"}, {"measurement": "% resazurin conversion", "setting": "HC3X; HC3X AAGLY D40, 1200 uM", "result": "124.1% and 158.2% and 141.5% and 92.2% and 126.1% and 100%"}, {"measurement": "% resazurin conversion", "setting": "HC6X; HC6X AAGLY D40, 3 uM", "result": "75.6% and 127.9% and 120.9% and 66.8% and 78.3% and 77.4%"}, {"measurement": "% resazurin conversion", "setting": "HC6X; HC6X AAGLY D40, 10 uM", "result": "91.8% and 85.1% and 137.3% and 90.8% and 71.9% and 90%"}, {"measurement": "% resazurin conversion", "setting": "HC6X; HC6X AAGLY D40, 30 uM", "result": "64% and 86.6% and 97% and 73.8% and 121% and 127.4%"}, {"measurement": "% resazurin conversion", "setting": "HC6X; HC6X AAGLY D40, 50 uM", "result": "73.2% and 144.6% and 104.7% and 102.8% and 73.1% and 92.5%"}, {"measurement": "% resazurin conversion", "setting": "HC6X; HC6X AAGLY D40, 100 uM", "result": "106.4% and 149.7% and 103.6% and 154.2% and 106.5% and 116.8%"}, {"measurement": "% resazurin conversion", "setting": "HC6X; HC6X AAGLY D40, 300 uM", "result": "112.1% and 78.2% and 96.7% and 122.1% and 97.1% and 124%"}, {"measurement": "% resazurin conversion", "setting": "HC6X; HC6X AAGLY D40, 1200 uM", "result": "183.8% and 127.4% and 126.7% and 100% and 123.1%"}, {"measurement": "% resazurin conversion", "setting": "HC6X; HC6X AAGLY D40 Remove dox, 3 uM", "result": "170.2% and 195.5% and 109.9% and 145.7% and 191.7% and 155.1%"}, {"measurement": "% resazurin conversion", "setting": "HC6X; HC6X AAGLY D40 Remove dox, 5 uM", "result": "151.1% and 130.1% and 149.6% and 123.6% and 100% and 119.7%"}, {"measurement": "% resazurin conversion", "setting": "HC6X; HC6X AAGLY D40 Remove dox, 10 uM", "result": "137.7% and 116.6% and 122.1% and 87.2% and 162.4%"}, {"measurement": "% resazurin conversion", "setting": "HC6X; HC6X AAGLY D40 Remove dox, 30 uM", "result": "189% and 104.3% and 104.5% and 116.4% and 109.9% and 115%"}, {"measurement": "% resazurin conversion", "setting": "HC6X; HC6X AAGLY D40 Remove dox, 50 uM", "result": "175.2% and 137% and 132.8% and 158.7% and 156.7% and 106.3%"}, {"measurement": "% resazurin conversion", "setting": "HC6X; HC6X AAGLY D40 Remove dox, 100 uM", "result": "169.7% and 178.1% and 127.2% and 203.2% and 156.7% and 201.6%"}, {"measurement": "% resazurin conversion", "setting": "HC6X; HC6X AAGLY D40 Remove dox, 300 uM", "result": "161.6% and 125.1% and 195.3% and 144.9% and 140.1%"}, {"measurement": "% resazurin conversion", "setting": "HC6X; HC6X AAGLY D40 Remove dox, 600 uM", "result": "164.3% and 170.2% and 157.3% and 178.7% and 172.2% and 213.4%"}, {"measurement": "% resazurin conversion", "setting": "HC6X; HC6X AAGLY D40 Remove dox, 1200 uM", "result": "129.6% and 183.1% and 151.5% and 181.6% and 201.4% and 154.1%"}]}]}
